Test results as given in publication PMC6976303 (Biochemistry, 2019).

Biological target: T1, human ABHD14B (Homo sapiens, UniProt Q96IU4)
T1 sequence (Q96IU4 1-210): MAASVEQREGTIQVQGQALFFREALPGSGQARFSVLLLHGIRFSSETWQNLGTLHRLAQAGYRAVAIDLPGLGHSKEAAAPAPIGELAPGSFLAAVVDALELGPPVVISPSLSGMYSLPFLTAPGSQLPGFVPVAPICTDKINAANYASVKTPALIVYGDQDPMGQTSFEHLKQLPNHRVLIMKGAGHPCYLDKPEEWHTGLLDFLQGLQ
Test: thermal shift assay, Sypro-Orange
Assay type: binding
Details: 10 mM ligand, 10 μM enzyme, 10 mM Tris pH 8

| Compound | leftward (lower temperature) thermal shift |
| --- | --- |
| CC(C)(COP(=O)(O)OP(=O)(O)OC[C@H]1O[C@@H](n2cnc3c(N)ncnc32)[C@H](O)[C@@H]1OP(=O)(O)O)[C@@H](O)C(=O)NCCC(=O)NCCS [CoA] | ~ 2 °C |
| CC(=O)SCCNC(=O)CCNC(=O)[C@H](O)C(C)(C)COP(=O)(O)OP(=O)(O)OC[C@H]1O[C@@H](n2cnc3c(N)ncnc32)[C@H](O)[C@@H]1OP(=O)(O)O [acetyl-CoA] | ~ 2 °C |
